Results on 36 compounds are retold here after ChEMBL document CHEMBL3102758, “Structure-activity relationship study of BACE1 inhibitors possessing a chelidonic or 2,6-pyridinedicarboxylic scaffold at the P(2) position” (Bioorg Med Chem Lett, 2014).

pIC50: −log10 of the molar value.

Test [1] deals with T1, Beta-secretase 1 (Homo sapiens, UniProt P56817). The test can be described thus: Inhibition of recombinant human BACE1 using (7-methoxycoumarin-4-yl)acetyl-SEVNL*DAEFRK(2,4-dinitrophenyl)-RR-NH2) as substrate at 2 uM by FRET assay.
T1 sequence (P56817 whole entry): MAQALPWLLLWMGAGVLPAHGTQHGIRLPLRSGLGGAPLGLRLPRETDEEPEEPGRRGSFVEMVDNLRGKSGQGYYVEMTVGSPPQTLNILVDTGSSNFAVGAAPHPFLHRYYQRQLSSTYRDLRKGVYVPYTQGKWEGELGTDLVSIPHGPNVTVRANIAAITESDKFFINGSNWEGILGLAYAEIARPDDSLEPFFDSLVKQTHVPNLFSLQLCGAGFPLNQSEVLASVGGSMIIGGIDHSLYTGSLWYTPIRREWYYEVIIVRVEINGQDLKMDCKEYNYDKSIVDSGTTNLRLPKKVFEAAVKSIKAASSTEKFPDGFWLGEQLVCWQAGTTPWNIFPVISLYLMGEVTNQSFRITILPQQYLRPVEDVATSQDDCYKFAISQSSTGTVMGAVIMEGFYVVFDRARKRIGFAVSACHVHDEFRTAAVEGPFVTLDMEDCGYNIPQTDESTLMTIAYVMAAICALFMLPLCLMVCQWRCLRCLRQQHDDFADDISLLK
The target in test [2] is T1, Beta-secretase 1. Put plainly: Inhibition of recombinant human BACE1 using (7-methoxycoumarin-4-yl)acetyl-SEVNL*DAEFRK(2,4-dinitrophenyl)-RR-NH2) as substrate at 0.2 uM by FRET assay.
The target of test [3] is T1, Beta-secretase 1. Put plainly: Inhibition of recombinant human BACE1 using (7-methoxycoumarin-4-yl)acetyl-SEVNL*DAEFRK(2,4-dinitrophenyl)-RR-NH2) as substrate by FRET assay.

Regarding `C[C@@H](NC(=O)c1cc(=O)cc(C(=O)N[C@@H](Cc2ccccc2)[C@H](O)C(=O)Nc2cccc(-c3nn[nH]n3)c2)o1)c1ccc([N+](=O)[O-])cc1`, the inhibition at Beta-secretase 1 [1] stood at 51%.

With `COc1ccc([C@@H](C)NC(=O)c2cc(=O)cc(C(=O)N[C@@H](Cc3ccccc3)[C@H](O)C(=O)Nc3cccc(-c4nn[nH]n4)c3)o2)cc1`, the inhibition at Beta-secretase 1 [1] amounted to 70%. On the same count and under the same terms, to `CN(c1cc(C(=O)N[C@@H](Cc2ccccc2)[C@H](O)C(=O)Nc2cccc(-c3nn[nH]n3)c2)nc(C(=O)N2COC[C@@H]2c2ccccc2)c1)S(C)(=O)=O` belongs 75%. In the case of `COc1cc(C(=O)N[C@@H](Cc2ccccc2)[C@H](O)C(=O)Nc2cccc(-c3nn[nH]n3)c2)nc(C(=O)N2COC[C@@H]2c2ccccc2)c1`, the inhibition at Beta-secretase 1 [1] is 91%; at Beta-secretase 1 [2] it was 53%. Also, the pIC50 on Beta-secretase 1 [3] was 6.82.

Regarding `CCCN(CCC)C(=O)c1cc(=O)cc(C(=O)N[C@@H](Cc2ccccc2)[C@@H](O)C(=O)Nc2cccc(-c3noc(=O)[nH]3)c2)o1`, the inhibition on Beta-secretase 1 [1] was 23%. Turning to `CCCOc1cc(C(=O)N[C@@H](Cc2ccccc2)[C@H](O)C(=O)Nc2cccc(-c3nn[nH]n3)c2)nc(C(=O)N2COC[C@@H]2c2ccccc2)c1`, the inhibition on Beta-secretase 1 [1] was 64%. Turning to `C[C@@H](NC(=O)c1cc(=O)cc(C(=O)N[C@@H](Cc2ccccc2)[C@H](O)C(=O)Nc2cccc(-c3nn[nH]n3)c2)o1)C1CCCCC1`, the inhibition on Beta-secretase 1 [1] is 26%. Take `O=C(NC(c1ccccc1)c1ccccc1)c1cc(=O)cc(C(=O)N[C@@H](Cc2ccccc2)[C@H](O)C(=O)Nc2cccc(-c3nn[nH]n3)c2)o1`: at Beta-secretase 1 [1], the inhibition turned out to be 13%. Same read-out and setting: to `CCOc1cc(C(=O)N[C@@H](Cc2ccccc2)[C@H](O)C(=O)Nc2cccc(-c3nn[nH]n3)c2)nc(C(=O)N[C@H](C)c2ccccc2)c1` belongs 46%; to `CN(Cc1ccccc1)C(=O)c1cc(=O)cc(C(=O)N[C@@H](Cc2ccccc2)[C@H](O)C(=O)Nc2cccc(-c3nn[nH]n3)c2)o1`, 67%; to `C[C@@H](NC(=O)c1cc(=O)cc(C(=O)N[C@@H](Cc2ccccc2)[C@H](O)C(=O)Nc2cccc(-c3nn[nH]n3)c2)o1)c1cccc(F)c1`, 62%. Still for that read-out and setting: with `CC[C@@H](NC(=O)c1cc(=O)cc(C(=O)N[C@@H](Cc2ccccc2)[C@H](O)C(=O)Nc2cccc(-c3nn[nH]n3)c2)o1)c1ccccc1` the figure was 32%; with `Cc1ccc([C@@H](C)NC(=O)c2cc(=O)cc(C(=O)N[C@@H](Cc3ccccc3)[C@H](O)C(=O)Nc3cccc(-c4nn[nH]n4)c3)o2)cc1`, 54%. For the compound `C[C@@H](NC(=O)c1cc(OS(=O)(=O)Cc2ccccc2)cc(C(=O)N[C@@H](Cc2ccccc2)[C@H](O)C(=O)Nc2cccc(-c3nn[nH]n3)c2)n1)c1ccccc1`, the inhibition at Beta-secretase 1 [1] was 29%. Regarding `O=C(N[C@@H](Cc1ccccc1)[C@H](O)C(=O)Nc1cccc(-c2nn[nH]n2)c1)c1cc(=O)cc(C(=O)N(Cc2ccccc2)Cc2ccccc2)o1`, on Beta-secretase 1 [1], the inhibition is 29%. On the same count and under the same terms, to `C[C@@H](NC(=O)c1cc(=O)cc(C(=O)N[C@@H](Cc2ccccc2)[C@H](O)C(=O)Nc2cccc(-c3nn[nH]n3)c2)o1)c1ccc(Cl)cc1` belongs 61%; to `CSc1cc(C(=O)N[C@@H](Cc2ccccc2)[C@H](O)C(=O)Nc2cccc(-c3nn[nH]n3)c2)nc(C(=O)N[C@H](C)c2ccccc2)c1`, 82%; to `CCCN(CCC)C(=O)c1cc(=O)cc(C(=O)N[C@@H](Cc2ccccc2)[C@@H](O)C(=O)Nc2cccc(C(=O)O)c2)o1`, 10%. With `[N-]=[N+]=Nc1cc(C(=O)N[C@@H](Cc2ccccc2)[C@H](O)C(=O)Nc2cccc(-c3nn[nH]n3)c2)nc(C(=O)N2COC[C@@H]2c2ccccc2)c1`, the inhibition at Beta-secretase 1 [1] is 95%; at Beta-secretase 1 [2], 68%. For the same compound, the pIC50 on Beta-secretase 1 [3] is 7.10. `CC(C)Sc1cc(C(=O)N[C@@H](Cc2ccccc2)[C@H](O)C(=O)Nc2cccc(-c3nn[nH]n3)c2)nc(C(=O)N2COC[C@@H]2c2ccccc2)c1`: on Beta-secretase 1 [1], the inhibition is 72%.

Regarding `Cc1cc(C(=O)N[C@@H](Cc2ccccc2)[C@H](O)C(=O)Nc2cccc(-c3nn[nH]n3)c2)nc(C(=O)N2COC[C@@H]2c2ccccc2)c1`, the inhibition on Beta-secretase 1 [1] amounted to 95%; on Beta-secretase 1 [2], 68%.

With `CN(NC(=O)c1cc(=O)cc(C(=O)N[C@@H](Cc2ccccc2)[C@H](O)C(=O)Nc2cccc(-c3nn[nH]n3)c2)o1)c1ccccc1`, the inhibition on Beta-secretase 1 [1] was found to be 21%. For `CSc1cc(C(=O)N[C@@H](Cc2ccccc2)[C@H](O)C(=O)Nc2cccc(-c3nn[nH]n3)c2)nc(C(=O)NC(C)(C)c2ccccc2)c1`, at Beta-secretase 1 [1], the inhibition was found to be 85%. Still for that read-out and setting: with `O=C(NCc1ccccc1)c1cc(=O)cc(C(=O)N[C@@H](Cc2ccccc2)[C@H](O)C(=O)Nc2cccc(-c3nn[nH]n3)c2)o1` the figure was 25%. Same read-out and setting: to `COc1cccc([C@@H](C)NC(=O)c2cc(=O)cc(C(=O)N[C@@H](Cc3ccccc3)[C@H](O)C(=O)Nc3cccc(-c4nn[nH]n4)c3)o2)c1` belongs 48%. With `CSc1cc(C(=O)N[C@@H](Cc2ccccc2)[C@H](O)C(=O)Nc2cccc(-c3nn[nH]n3)c2)nc(C(=O)N2COC[C@@H]2c2ccccc2)c1`, the inhibition came out at 95% on Beta-secretase 1 [1] and 66% on Beta-secretase 1 [2]. For the same compound, the negative logarithm of the IC50 (pIC50) at Beta-secretase 1 [3] was 7.05. For the compound `CCOc1cc(C(=O)N[C@@H](Cc2ccccc2)[C@H](O)C(=O)Nc2cccc(-c3nn[nH]n3)c2)nc(C(=O)NC(C)(C)c2ccccc2)c1`, on Beta-secretase 1 [1], the inhibition worked out at 42%. For the compound `CCCN(CCC)C(=O)c1cc(=O)cc(C(=O)N[C@@H](Cc2ccccc2)[C@H](O)C(=O)Nc2cccc(-c3nnn[nH]3)c2)o1`, at Beta-secretase 1 [1], the inhibition is 6%. As to `Nc1cc(C(=O)N[C@@H](Cc2ccccc2)[C@H](O)C(=O)Nc2cccc(-c3nn[nH]n3)c2)nc(C(=O)N2COC[C@@H]2c2ccccc2)c1`, the figures for the inhibition at Beta-secretase 1 [1] and on Beta-secretase 1 [2] were 78% and 53%, respectively. `C[C@H](NC(=O)c1cc(=O)cc(C(=O)N[C@@H](Cc2ccccc2)[C@H](O)C(=O)Nc2cccc(-c3nn[nH]n3)c2)o1)c1ccccc1`: on Beta-secretase 1 [1], the inhibition turned out to be 25%. As for `COc1cc(C(=O)N[C@@H](Cc2ccccc2)[C@H](O)C(=O)Nc2cccc(-c3nn[nH]n3)c2)nc(C(=O)N[C@H](C)c2ccccc2)c1`, on Beta-secretase 1 [1], the inhibition came to 73%.

Regarding `O=C(N[C@@H](CO)c1ccccc1)c1cc(=O)cc(C(=O)N[C@@H](Cc2ccccc2)[C@H](O)C(=O)Nc2cccc(-c3nn[nH]n3)c2)o1`, the inhibition at Beta-secretase 1 [1] stood at 11%. As for `CCCN(CCC)C(=O)c1cc(=O)cc(C(=O)N[C@@H](Cc2ccccc2)[C@@H](O)C(=O)Nc2cccc(-c3nnn[nH]3)c2)o1`, at Beta-secretase 1 [1], the inhibition was determined as 60%. Same read-out and setting: to `COc1cc(C(=O)N[C@@H](Cc2ccccc2)[C@H](O)C(=O)Nc2cccc(-c3nn[nH]n3)c2)nc(C(=O)NC(C)(C)c2ccccc2)c1` belongs 74%; to `C[C@@H](NC(=O)c1cc(=O)cc(C(=O)N[C@@H](Cc2ccccc2)[C@H](O)C(=O)Nc2cccc(-c3nn[nH]n3)c2)o1)c1ccc(F)cc1`, 76%; to `CCOc1cc(C(=O)N[C@@H](Cc2ccccc2)[C@H](O)C(=O)Nc2cccc(-c3nn[nH]n3)c2)nc(C(=O)N2COC[C@@H]2c2ccccc2)c1`, 79%.
